# Results reported in US12043600B2, “Microbiocidal compounds” (SYNGENTA CROP PROTECTION AG, priority 2018, dated 2024).
# How the values were obtained:
# [1] = tested on: Mycosphaerella arachidis (Cercospora arachidicola); assay: Mycosphaerella arachidis (Cercospora arachidicola)/Liquid Culture (Early Leaf Spot); assay type: cell-based; details: liquid culture, compared to untreated control
# How it was run: (§1)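 Test compound dissolved in DMSO is dispensed first; nutrient broth (potato dextrose) carrying conidia thawed from cryogenic storage follows.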
# [2] = tested on: Magnaporthe grisea (Pyricularia oryzae); assay: whole plant or invertebrate; assay type: in vivo; details: foliar, read-out: control of Magnaporthe grisea
# [3] = tested on: Blumeria graminis f. sp. tritici (Erysiphe graminis f. sp. tritici); assay: Blumeria graminis f. sp. tritici/Wheat/Leaf Disc Preventative (Powdery Mildew on Wheat); assay type: in vivo; details: foliar, wheat leaf disc preventative, compared to untreated control
# How it was run: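 Wheat cv. Kanzler leaf segments on agar sprayed with formulated compound, inoculated with powdery mildew 1 day later and held at 20° C, 60% rh (24 h dark, then 12 h light/12 h dark). Percent disease control versus untreated scored 6-8 days after application.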
# [4] = tested on: Puccinia recondita f. sp. tritici; assay: Puccinia recondita f. sp. tritici/Wheat/Leaf Disc Preventative (Brown Rust); assay type: in vivo; details: foliar, 200 ppm, wheat leaf disc preventative, compared to untreated control, read-out: control of Puccinia recondita f. sp. tritici
# [5] = tested on: Puccinia recondita f. sp. tritici; assay: Puccinia recondita f. sp. tritici/Wheat/Leaf Disc Curative (Brown Rust); assay type: in vivo; details: foliar, wheat leaf disc curative, compared to untreated control
# How it was run: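 Curative leaf-disc test on wheat cv. Kanzler segments on agar, spore-inoculated and kept dark at 19° C, 75% rh; formulated compound in water applied 1 day after inoculation. Incubated at 19° C, 75% rh, 12 h light/12 h dark; percent disease control versus untreated scored 6-8 days after application.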
# Phytophthora infestans = assay: whole plant or invertebrate; assay type: in vivo; details: in Solanum lycopersicum, foliar, read-out: control of Phytophthora infestans
# [6] = tested on: Glomerella lagenarium (Colletotrichum lagenarium); assay: Glomerella lagenarium (Colletotrichum lagenarium)/Liquid Culture (Anthracnose); assay type: cell-based; details: Colletotrichum orbiculare, liquid culture, compared to untreated control
# [7] = tested on: Mycosphaerella graminicola (Septoria tritici); assay: Mycosphaerella graminicola (Septoria tritici)/Liquid Culture (Septoria Blotch); assay type: cell-based; details: Zymoseptoria tritici; 20 ppm; liquid culture; compared to untreated control
# How it was run: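 Conidia from cryogenic storage mixed into potato dextrose broth and added to microtiter wells already holding DMSO solutions of test compound. Activity expressed as percentage disease control.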
# Plasmopara viticola = assay: whole plant or invertebrate; assay type: in vivo; details: foliar, read-out: control of Plasmopara viticola
# Sclerotinia sclerotiorum = assay: Sclerotinia sclerotiorum/Liquid Culture (Cottony Rot); assay type: cell-based; details: liquid culture, compared to untreated control
# Procedure: Mycelia fragments of a newly grown liquid culture of the fungus are directly mixed into nutrient broth (PDB potato dextrose broth). After placing a (DMSO) solution of test compound into a microtiter plate (96-well format) the nutrient broth containing the fungal material is added.
# [8] = tested on: Monographella nivalis (Microdochium nivale); assay: Monographella nivalis (Microdochium nivale)/Liquid Culture (Foot Rot Cereals); assay type: cell-based; details: liquid culture, compared to untreated control
# How it was run: as §1
# [9] = tested on: Phaeosphaeria nodorum (Septoria nodorum); assay: Phaeosphaeria nodorum (Septoria nodorum)/Wheat/Leaf Disc Preventative (Glume Blotch); assay type: in vivo; details: Parastagonospora nodorum, foliar, wheat leaf disc preventative, compared to untreated control
# How it was run: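 Wheat cv. Kanzler leaf discs on agar were sprayed with formulated compound diluted in water and inoculated with P. nodorum spores 2 days later. Discs kept at 20 °C, 75% rh, 12 h light/dark; percent disease control versus untreated scored 5–7 days after application.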
# Phakopsora pachyrhizi = assay: Phakopsora pachyrhizi/Soybean/Preventative (Soybean Rust); assay type: in vivo; details: foliar, 288 h, 200 ppm, soybean leaf disc preventative, compared to untreated control, read-out: control of Phakopsora pachyrhizi
# [10] = tested on: Thanatephorus cucumeris (Rhizoctonia solani); assay: Thanatephorus cucumeris (Rhizoctonia solani)/Liquid Culture (Foot Rot, Damping-Off); assay type: cell-based; details: liquid culture, compared to untreated control
# Procedure: Mycelia fragments of a newly grown liquid culture of the fungus are directly mixed into nutrient broth (PDB potato dextrose broth). After placing a (DMSO) solution of the test compounds into a microtiter plate (96-well format), the nutrient broth containing the fungal material is added.
# [11] = tested on: Botryotinia fuckeliana (Botrytis cinerea); assay: Botryotinia fuckeliana (Botrytis cinerea)/Liquid Culture (Gray Mould); assay type: cell-based; details: liquid culture, compared to untreated control
# Procedure: Conidia of the fungus from cryogenic storage are directly mixed into nutrient broth (Vogels broth). After placing a (DMSO) solution of test compound into a microtiter plate (96-well format), the nutrient broth containing the fungal spores is added.
# [12] = Photostability assay (Atlas Suntest); assay type: physicochemical; details: Suntest 750 W/m^2, spotted on microscope slides
# Procedure: The testing method to measure the photostability data of each compound in table is D1 is as specifically described below. The objective of the photostability assay was to determine the stability of the individual test compounds in a strictly controlled and reproducible environment allowing a comparison of their photostability.
# Method: Compounds were dissolved in methanol (HPLC grade) to give 1 g/L stock solutions. Compound stock solution (2 μl) was spotted onto microscope slides in a 3D printed holder and put into the Atlas Suntest. The spectral output power of the Suntest was set to 750 W/m^2, which is considered typical of the daily maximum (noon) irradiance level on a very bright British Summer day. At specific time points slides were removed from the Suntest and placed in 4D vials. Wash solvent made up of 50:40:10 H2O:MeCN:THF (1 mL) is then added to the vials and whirlimixed. The resulting solution is then subsampled to an HPLC vial to be analysed. A Waters UPLC system with Photodiode Array was used with a Waters reverse phase column (BEH C18, 100×2.1 mm×1.7 μm) and acetonitrile (HPLC grade) acidified water (0.2% formic acid) mobile phase at a flow rate of 0.6 mL/min. Peak detection was at the optimum wavelength and peak areas were used for quantification
# Initial and subsequent measurements of peak area attributable to the test compound were used to provide a % parent remaining at 3 hours.
# Pyrenophora teres = assay: Pyrenophora teres/Barley/Leaf Disc Preventative (Net Blotch); assay type: in vivo; details: foliar, 200 ppm, barley leaf disc preventative, compared to untreated control, read-out: control of Pyrenophora teres
# How it was run: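 Formulated compound, diluted in water, sprayed onto barley cv. Hasso leaf segments on agar; spore suspension inoculation followed 2 days after application. Results expressed as percentage disease control.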
Structure (SMILES),inhibition of growth at 20 ppm [1] [%],pest or weed control at 200 ppm [2] [%],pest or weed control at 200 ppm [3] [%],pest or weed control at 200 ppm [4] [%],pest or weed control at 200 ppm [5] [%],pest or weed control at 200 ppm (Phytophthora infestans) [%],inhibition of growth at 20 ppm [6] [%],inhibition of growth at 20 ppm [7] [%],pest or weed control at 200 ppm (Plasmopara viticola) [%],inhibition of growth at 20 ppm (Sclerotinia sclerotiorum) [%],inhibition of growth at 20 ppm [8] [%],pest or weed control at 200 ppm [9] [%],melting point [°C],pest or weed control at 200 ppm (Phakopsora pachyrhizi) [%],inhibition of growth at 20 ppm [10] [%],inhibition of growth at 20 ppm [11] [%],% Parent Remaining @ 3 hrs [12] [%],pest or weed control at 200 ppm (Pyrenophora teres) [%]
"CO/C=C(\Oc1cc(-n2ccc(C3CCC3)n2)c(F)cc1C)C(=O)OC [Compound E-18, methyl (Z)-2-[5-(3-cyclobutylpyrazol-1-yl)-4-fluoro-2-methyl-phenoxy]-3-methoxy-prop-2-enoate]",≥ 80,≥ 80,≥ 80,≥ 80,≥ 80,≥ 80,≥ 80,≥ 80,≥ 80,≥ 80,≥ 80,–,–,–,–,–,–,–
"CO/C=C(\Oc1cc(-n2ccc(C(F)(F)F)n2)cc(C)c1C)C(=O)OC [Compound E-19, methyl (Z)-2-[2,3-dimethyl-5-[3-(trifluoromethyl)pyrazol-1-yl]phenoxy]-3-methoxy-prop-2-enoate]",≥ 80,≥ 80,≥ 80,≥ 80,–,≥ 80,≥ 80,≥ 80,≥ 80,≥ 80,≥ 80,≥ 80,144 to 146,–,–,–,–,–
"CO/C=C(\Oc1cc(-n2ccc(C(C)C)n2)cc(C)c1C)C(=O)OC [Compound E-20, methyl (Z)-2-[5-(3-isopropylpyrazol-1-yl)-2,3-dimethyl-phenoxy]-3-methoxy-prop-2-enoate]",≥ 80,≥ 80,–,≥ 80,≥ 80,≥ 80,≥ 80,≥ 80,≥ 80,≥ 80,≥ 80,≥ 80,103 to 105,≥ 50,–,–,–,–
"C=C(c1ccn(-c2ccc(C)c(O/C(=C\OC)C(=O)OC)c2)n1)C(F)(F)F [Compound E-24, methyl (Z)-3-methoxy-2-[2-methyl-5-[3-[1-(trifluoromethyl)vinyl]pyrazol-1-yl]phenoxy]prop-2-enoate]",≥ 80,≥ 80,≥ 80,≥ 80,≥ 80,≥ 80,≥ 80,≥ 80,≥ 80,≥ 80,≥ 80,≥ 80,–,–,≥ 80,≥ 80,–,–
"CO/C=C(\Oc1cc(-n2ccc(C(F)(F)F)n2)c(F)cc1C)C(=O)OC [Compound E-42, methyl (Z)-2-[4-fluoro-2-methyl-5-[3-(trifluoromethyl)pyrazol-1-yl]phenoxy]-3-methoxy-prop-2-enoate]",≥ 80,≥ 80,≥ 80,≥ 80,≥ 80,–,≥ 80,≥ 80,≥ 80,–,≥ 80,≥ 80,104 to 108,–,≥ 80,≥ 80,24,≥ 80
"CO/C=C(\Oc1cc(-n2ccc(C(F)(F)C(F)(F)F)n2)ccc1C)C(=O)OC [Compound E-69, methyl (Z)-3-methoxy-2-[2-methyl-5-[3-(1,1,2,2,2-pentafluoroethyl)pyrazol-1-yl]phenoxy]prop-2-enoate]",≥ 80,≥ 80,≥ 80,≥ 80,≥ 80,–,≥ 80,≥ 80,≥ 80,≥ 80,≥ 80,–,117 to 120,–,≥ 80,–,–,–
"CO/C=C(\Oc1cc(-n2cc(Br)c(C)n2)ccc1C)C(=O)OC [Compound E-117, methyl (Z)-2-[5-(4-bromo-3-methyl-pyrazol-1-yl)-2-methyl-phenoxy]-3-methoxy-prop-2-enoate]",≥ 80,–,≥ 80,≥ 80,≥ 80,–,≥ 80,≥ 80,≥ 80,≥ 80,≥ 80,–,120 to 122,–,–,–,–,–
"CCCCc1cnn(-c2ccc(C)c(O/C(=C\OC)C(=O)OC)c2)n1 [Compound F-3, methyl (Z)-2-[5-(4-butyltriazol-2-yl)-2-methyl-phenoxy]-3-methoxy-prop-2-enoate]",≥ 80,≥ 80,–,≥ 80,≥ 80,–,≥ 80,≥ 80,≥ 80,≥ 80,≥ 80,≥ 80,68 to 70,–,–,–,–,–
"CO/C=C(\Oc1cc(-n2ncc(C3CCCCC3)n2)ccc1C)C(=O)OC [Compound F-7, methyl (Z)-2-[5-(4-cyclohexyltriazol-2-yl)-2-methyl-phenoxy]-3-methoxy-prop-2-enoate]",≥ 80,≥ 80,≥ 80,≥ 80,≥ 80,–,≥ 80,≥ 80,≥ 80,≥ 80,≥ 80,≥ 80,120 to 122,–,–,–,–,≥ 80
